Values joined by “and” are separate entries in the source; they are usually repeats but may differ in a detail not shown here. Identical values can stand only once.
Assays:
[1] = for vapor or sublimation pressure: Closed cell (Static) method; for Normal melting temperature: DTA
[2] = Molar enthalpy of transition or fusion; conditions: Crystal; DSC

COC(=O)c1cccnc1 [3-pyridinecarboxylic acid methyl ester]
vapor or sublimation pressure, [1]
Conditions | Crystal | Liquid
273.23 K | 0.000651 kPa and 0.000658 kPa | –
278.2 K | 0.001228 kPa and 0.001214 kPa | –
283.18 K | 0.002269 kPa | –
283.19 K | 0.002282 kPa and 0.002271 kPa | –
288.16 K | 0.00406 kPa and 0.004076 kPa | –
293.16 K | 0.007304 kPa and 0.007318 kPa | –
298.14 K | 0.0127 kPa | 0.01819 kPa
298.15 K | – | 0.01819 kPa
298.16 K | 0.01269 kPa | –
303.13 K | – | 0.02715 kPa and 0.02712 kPa
303.14 K | 0.0216 kPa and 0.02159 kPa | –
305.12 K | – | 0.03186 kPa
305.13 K | – | 0.03188 kPa
307.11 K | – | 0.03712 kPa and 0.03709 kPa
308.1 K | 0.03586 kPa | –
308.11 K | 0.03587 kPa | –
309.1 K | – | 0.0431 kPa and 0.04306 kPa
310.6 K | 0.04566 kPa | –
310.61 K | 0.04595 kPa and 0.04557 kPa | –
311.07 K | – | 0.0502 kPa
311.08 K | – | 0.05006 kPa
313.07 K | – | 0.05817 kPa
313.08 K | – | 0.05817 kPa
315.06 K | – | 0.06722 kPa
315.07 K | – | 0.06704 kPa
317.04 K | – | 0.07707 kPa
317.05 K | – | 0.07715 kPa
318.08 K | – | 0.08317 kPa
318.11 K | – | 0.0833 kPa
319.09 K | – | 0.08886 kPa
321.08 K | – | 0.102 kPa and 0.103 kPa
323.09 K | – | 0.1177 kPa
324.06 K | – | 0.1247 kPa and 0.1246 kPa

Conditions | Normal melting temperature [°C]
[1], Crystal | 39.5

Conditions | Molar enthalpy of transition or fusion [kcal/mol]
[2] | 4.61

COC(=O)c1ccccn1 [methyl 2-pyridinecarboxylate]
vapor or sublimation pressure, [1]
Conditions | Crystal | Liquid
273.21 K | – | 0.00051 kPa and 0.000505 kPa
278.18 K | – | 0.00086 kPa and 0.000856 kPa
278.2 K | 0.000582 kPa and 0.00058 kPa | –
280.67 K | 0.000793 kPa | –
280.68 K | 0.000794 kPa | –
283.15 K | 0.001087 kPa | 0.001403 kPa
283.16 K | 0.001086 kPa | 0.001399 kPa
285.65 K | 0.001476 kPa and 0.001472 kPa | –
288.13 K | – | 0.002242 kPa
288.14 K | 0.001988 kPa | 0.002246 kPa
288.15 K | 0.001989 kPa | –
290.63 K | 0.002681 kPa | –
290.65 K | 0.002682 kPa | –
293.12 K | – | 0.00357 kPa
293.13 K | – | 0.003566 kPa
298.15 K | – | 0.005628 kPa and 0.005601 kPa
303.15 K | – | 0.008522 kPa and 0.008506 kPa
308.08 K | – | 0.0128 kPa
308.11 K | – | 0.01279 kPa
313.12 K | – | 0.01919 kPa
313.13 K | – | 0.01916 kPa
318.09 K | – | 0.02771 kPa and 0.02763 kPa
323.05 K | – | 0.03968 kPa
328.04 K | – | 0.05628 kPa and 0.05632 kPa
333.01 K | – | 0.0787 kPa
333.02 K | – | 0.07876 kPa
337.99 K | – | 0.1088 kPa
340.47 K | – | 0.127 kPa

Conditions | Normal melting temperature [°C]
[1], Crystal | 16.1

Conditions | Molar enthalpy of transition or fusion [kcal/mol]
[2] | 4.02

COC(=O)c1ccncc1 [methyl 4-pyridinecarboxylate]
[1], Liquid
Conditions | vapor or sublimation pressure
273.26 K | 0.002588 kPa
275.74 K | 0.003349 kPa and 0.003323 kPa
278.22 K | 0.004243 kPa
278.23 K | 0.004253 kPa
280.71 K | 0.005373 kPa and 0.005383 kPa
283.19 K | 0.006753 kPa
285.66 K | 0.008443 kPa
288.16 K | 0.01054 kPa
290.65 K | 0.01308 kPa
293.15 K | 0.01615 kPa
293.16 K | 0.01617 kPa
295.65 K | 0.0199 kPa
298.13 K | 0.02427 kPa
298.14 K | 0.02428 kPa
300.63 K | 0.0296 kPa and 0.02961 kPa
303.12 K | 0.03595 kPa
303.13 K | 0.03597 kPa
305.62 K | 0.04347 kPa
305.63 K | 0.04348 kPa
308.09 K | 0.05219 kPa
310.59 K | 0.06266 kPa
310.6 K | 0.0627 kPa
313.07 K | 0.07495 kPa and 0.0749 kPa
315.54 K | 0.08924 kPa
315.56 K | 0.08934 kPa
318.03 K | 0.1062 kPa
320.52 K | 0.1256 kPa

Conditions | Normal melting temperature [°C]
[1], Crystal | 10.2

Conditions | Molar enthalpy of transition or fusion [kcal/mol]
[2] | 3.49
